Data reported in patent US20040072825A1, “2-(2-(4-((2r)-2-methyl-3-(10h-phenothiazin-10-yl)propyl)-1-piperazinyl)-ethoxy) ethanol, process for the preparation thereof, pharmaceutical compositions containing said compound and therapeutic uses thereof” (priority 2000, published 2004).
Marks after values point to notes of the source that are not given here.

Columns and labels:
[1] = target: T1, human D3 dopaminergic receptor (Homo sapiens, UniProt P35462); experiment: Radioligand binding, human D3 receptor (CHO cell culture); conditions: for IC50: D3, competitive binding, read-out: Affinity pIC50 (-log IC50) (converted)
T1 construct: expressed in transfected cells; host or cells: CHO
T1 sequence (P35462 whole entry): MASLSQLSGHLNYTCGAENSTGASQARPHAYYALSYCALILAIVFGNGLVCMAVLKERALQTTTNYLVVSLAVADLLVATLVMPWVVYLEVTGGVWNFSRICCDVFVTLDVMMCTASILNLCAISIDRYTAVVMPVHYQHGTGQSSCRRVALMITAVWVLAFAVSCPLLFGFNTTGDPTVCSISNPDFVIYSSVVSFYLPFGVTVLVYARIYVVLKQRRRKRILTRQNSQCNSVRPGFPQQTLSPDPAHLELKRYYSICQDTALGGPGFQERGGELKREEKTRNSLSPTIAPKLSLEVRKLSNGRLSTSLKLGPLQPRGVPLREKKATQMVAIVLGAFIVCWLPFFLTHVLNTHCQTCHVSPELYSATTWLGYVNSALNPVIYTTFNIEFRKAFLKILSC
Experimental: (§1) The test substances, biological materials and experimental protocols used in the study are described in Moguilevsky N. et al. (1994) Eur. J. […] List S. J. (1981) Proc. Natl. Acad. Sci.78:2620-2624; MacKenzie R. G. et al. (1994) Eur. J. Pharmacol. 266:79-85; Van Tol et al., (1992) Nature, 358:149-152. […] Filtermat A, Walac), then washed with cold buffer using a filtration unit ‘Cell Harvester’ (Brandel, Packard or Tomtec). The bound radioactivity is measured using a scintillation liquid (Formula 989 or Microscint 0, Packard) or solid (Meltilex B/HS, Wallac), and a scintillation counter (LS 6000, Beckman; Topcount, Packard; Betaplate, Wallac). […] Each experiment was performed in duplicate (n=2). In parallel, a positive control (concentration of reference substance causing 50% inhibition of radioligand specific binding) is tested to validate the assay. For competition experiments, membranes are incubated in the buffer containing the radioligand and increasing concentrations of unlabeled test substances. Each binding assay is validated with a reference compound tested in parallel. […] where BO and BI represent the total binding in the absence and presence of the unlabelled drug (in dpm/assay) and NSB is the amount of non specific binding (in dpm/assay). Analysis of raw data and pIC50 calculation is performed by computerized non-linear curve fitting methods using a set of equations describing competitive interactions between labelled and unlabeled ligands which obey the law of mass action. IC50 represents the concentration of the test substance inhibiting 50% of the specific binding of the radioligand. It is determined in competitive binding experiments by measuring the binding of a single concentration of a radioactive ligand at equilibrium with various concentrations of the unlabeled test substance. pIC50=−log IC50

[2] = target: T2, D4.4 dopaminergic receptor (Homo sapiens, UniProt P21917); experiment: Radioligand binding, D4.4 receptor (CHO cell culture); conditions: for IC50: D4.4, competitive binding, read-out: Affinity pIC50 (-log IC50) (converted)
T2 construct: expressed in transfected cells; host or cells: CHO
T2 sequence (P21917 1-419): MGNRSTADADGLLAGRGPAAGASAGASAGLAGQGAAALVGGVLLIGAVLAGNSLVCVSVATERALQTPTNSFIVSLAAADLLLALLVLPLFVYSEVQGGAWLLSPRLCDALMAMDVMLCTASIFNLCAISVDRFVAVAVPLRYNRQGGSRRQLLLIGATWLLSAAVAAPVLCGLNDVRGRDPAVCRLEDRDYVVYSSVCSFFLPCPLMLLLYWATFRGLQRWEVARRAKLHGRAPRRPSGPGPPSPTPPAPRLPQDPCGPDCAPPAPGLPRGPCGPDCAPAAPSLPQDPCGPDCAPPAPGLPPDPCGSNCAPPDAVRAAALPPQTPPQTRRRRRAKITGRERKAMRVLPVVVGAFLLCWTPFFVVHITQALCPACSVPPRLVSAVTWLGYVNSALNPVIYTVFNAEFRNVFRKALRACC
Experimental: as §1

[3] = target: D2 dopaminergic receptor (Rattus norvegicus, UniProt P61169); experiment: Radioligand binding, D2 receptor (rat striatum membranes); conditions: for IC50: D2, competitive binding, read-out: Affinity pIC50 (-log IC50) (converted)
Sequence of D2 dopaminergic receptor (P61169 1-415 isoform P61169-2): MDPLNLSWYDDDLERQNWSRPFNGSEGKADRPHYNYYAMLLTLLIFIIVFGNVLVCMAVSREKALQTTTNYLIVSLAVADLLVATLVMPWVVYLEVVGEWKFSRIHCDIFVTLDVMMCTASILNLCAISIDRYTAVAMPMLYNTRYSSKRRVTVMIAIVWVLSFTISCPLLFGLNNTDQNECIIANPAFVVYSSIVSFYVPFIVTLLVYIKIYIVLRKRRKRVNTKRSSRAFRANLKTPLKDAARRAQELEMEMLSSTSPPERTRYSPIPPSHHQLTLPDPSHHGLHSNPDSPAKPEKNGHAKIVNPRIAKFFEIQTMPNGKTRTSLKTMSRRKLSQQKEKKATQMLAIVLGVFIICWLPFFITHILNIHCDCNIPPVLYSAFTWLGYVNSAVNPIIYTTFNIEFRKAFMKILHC
Experimental: as §1

[4] = target: T3, 5-HT2 serotonergic receptor (Rattus norvegicus, UniProt P14842); experiment: Radioligand binding, 5-HT2 receptor (rat cerebral cortex); conditions: for IC50: 5-HT2, competitive binding, read-out: Affinity pIC50 (-log IC50) (converted)
T3 construct: the rat cerebral cortex (5-HT2 receptor); from tissue; host or cells: rat cerebral cortex
T3 sequence (P14842 whole entry): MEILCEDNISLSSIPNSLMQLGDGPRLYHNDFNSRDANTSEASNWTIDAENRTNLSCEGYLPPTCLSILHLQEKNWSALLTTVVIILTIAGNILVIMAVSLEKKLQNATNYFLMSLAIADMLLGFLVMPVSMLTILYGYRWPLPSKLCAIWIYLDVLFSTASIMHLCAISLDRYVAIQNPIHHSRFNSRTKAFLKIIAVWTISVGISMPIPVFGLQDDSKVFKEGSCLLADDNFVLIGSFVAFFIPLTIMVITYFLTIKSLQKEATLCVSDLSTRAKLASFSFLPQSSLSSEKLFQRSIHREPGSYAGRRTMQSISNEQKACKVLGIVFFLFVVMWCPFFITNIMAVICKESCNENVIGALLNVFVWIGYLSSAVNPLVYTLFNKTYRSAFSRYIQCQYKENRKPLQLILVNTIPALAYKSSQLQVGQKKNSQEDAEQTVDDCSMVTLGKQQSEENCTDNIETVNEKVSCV
Experimental: as §1

[5] = target: human H1 histaminic receptor (Homo sapiens, UniProt P35367); experiment: Radioligand binding, human H1 receptor (CHO cell culture); conditions: for IC50: H1, competitive binding, read-out: Affinity pIC50 (-log IC50) (converted)
Sequence of human H1 histaminic receptor (P35367 whole entry): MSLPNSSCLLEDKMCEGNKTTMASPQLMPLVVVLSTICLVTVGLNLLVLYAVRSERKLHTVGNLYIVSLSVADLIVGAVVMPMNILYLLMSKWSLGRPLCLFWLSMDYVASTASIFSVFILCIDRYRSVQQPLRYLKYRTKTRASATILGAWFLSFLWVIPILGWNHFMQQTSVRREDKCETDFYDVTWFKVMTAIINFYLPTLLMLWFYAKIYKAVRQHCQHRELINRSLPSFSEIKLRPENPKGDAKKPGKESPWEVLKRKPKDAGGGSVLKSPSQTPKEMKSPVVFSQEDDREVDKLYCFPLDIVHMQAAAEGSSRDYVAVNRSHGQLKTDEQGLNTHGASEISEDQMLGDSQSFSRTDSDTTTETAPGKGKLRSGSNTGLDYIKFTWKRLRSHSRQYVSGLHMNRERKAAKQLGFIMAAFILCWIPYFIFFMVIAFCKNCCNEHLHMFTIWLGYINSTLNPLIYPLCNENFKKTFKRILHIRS
Experimental: as §1

[6] = test system: vomiting induced by cisplatin in ferrets; experiment: Cisplatin-induced emesis in ferrets, single oral administration; assay type: in vivo, ferret; conditions: for Proportion of animal vomiting: 60 min before cisplatin i.v., 5 h observation
Experimental: Cisplatin-induced emesis in ferrets is largely considered as the most suitable animal model for the study of drug activity against chemotherapy-induced vomiting in man (Georges L. King. Animal models in the study of vomiting. Can. J. Physiol. Pharmacol. 68, 260-268, 1988).
Three compounds, dixyrazine dihydrochloride and its (R) and (S) enantiomers were tested for their activity against vomiting induced by cisplatin in ferrets following single oral administration.
The study involved 14 groups of 8 male ferrets weighing between 0.93 kg and 1.45 kg purchased from the company MARSHALL FARMS (NEW YORK, U.S.). Groups were defined as follows: […]
group 1: control group dosed with the vehicle of test substances (sterile water),
group 2: method-control group dosed with a method-control substance, granisetron ([…], RBI®), at a dose of 0.3 mg/kg,
group 3 to 6: group dosed with diyyrazine dihydrochloride at 4 increasing doses of 7.5, 15, 30 and 60 mg/kg,
group 7 to 10: group dosed with the (R) enantiomer of dixyrazine dihydrochloride at 4 increasing doses of 7.5, 15, 30 and 60 mg/kg,
group 11 to 14: group dosed with the (S) enantiomer of drazine dihydrochloride at 4 increasing doses of 7.5, 15, 30 and 60 mg/kg.
On the day prior to the test, animals were fasted and allowed access only to water.
On the morning of the day of the study, free access to food was allowed for 30 minutes. Subsequently, animals were again put on to a water-only fast for 30 minutes before administration of the three compounds, the vehicle or the method-control substance which were administrated orally in a volume of 5 ml/kg.
Cisplatin was administrated by the intravenous route at a dose of 115 mg/m^2 and in a volume of 115 ml/m^2 (i.e. approximately at 10 mg/kg), 60 minutes after treatment. […] Emesis was characterised by abdominal contractions, which were associated with expulsion or attempted expulsion of stomach contents.
The time to onset of emesis was noted. The number of episodes of vomiting and the number of abdominal retches associated with episodes of emesis were also noted.

[7] = test system: vomiting and nausea in cancerotherapy; conditions: patients in cancerotherapy, personal interview; cited from earlier work
[8] = highest dose of 60 mg/kg p.o., dihydrochloride, 60 mg/kg
[9] = highest dose of 60 mg/kg p.o., listed as (R) enantiomer of dixyrazine dihydrochloride, dihydrochloride, 60 mg/kg

For `C[C@@H](CN1CCN(CCOCCO)CC1)CN1c2ccccc2Sc2ccccc21` (single isomer, unassigned) [(S) enantiomer (free base)], the “percent inhibition of control specific binding” value (shortened to “percent inhibition”) ([1]; D3, 0.2 μM, mean of duplicate) was “— (Symbol-represents an inhibition<10%)”, the “percent inhibition” value ([1]; D3, 10 μM, mean of duplicate) was 74% and the “percent inhibition” value ([2]; D4.4, 0.2 μM, mean of duplicate) was “— (Symbol-represents an inhibition<10%)”. The “percent inhibition” value ([2]; D4.4, 10 μM, mean of duplicate) was 27%, the “percent inhibition” value ([3]; D2, 10 μM, mean of duplicate) was 89% and the “percent inhibition” value ([4]; 5-HT2, 10 μM, mean of duplicate) was 101%. The “percent inhibition” value ([5]; H1, 10 μM, mean of duplicate) was 101%.
`C[C@H](CN1CCN(CCOCCO)CC1)CN1c2ccccc2Sc2ccccc21` [(R) enantiomer (free base), 2-(2-{4-[(2R)-2-methyl-3-(10H-phenothiazin-10-yl)propyl]-1-piperazinyl}ethoxy)ethanol] showed an inhibition at 0.1 µM ([1]; D3, 0.1 μM, mean of duplicate, read-out: percent inhibition of control specific binding) of 81%, an inhibition at 10 µM ([1]; D3, 10 μM, mean of duplicate, read-out: percent inhibition of control specific binding) of 100% and an inhibition at 0.1 µM ([2]; D4.4, 0.1 μM, mean of duplicate, read-out: percent inhibition of control specific binding) of 40%. The inhibition at 10 µM ([2]; D4.4, 10 μM, mean of duplicate, read-out: percent inhibition of control specific binding) was 99%, the inhibition at 10 µM ([3]; D2, 10 μM, mean of duplicate, read-out: percent inhibition of control specific binding) was 100% and the inhibition at 10 µM ([4]; read-out: percent inhibition of control specific binding, 5-HT2, 10 μM, mean of duplicate) was 102%. The inhibition at 10 µM ([5]; H1, 10 μM, mean of duplicate, read-out: percent inhibition of control specific binding) was 101%.
Compound `C[C@H](CN1CCN(CCOCCO)CC1)CN1c2ccccc2Sc2ccccc21.Cl.Cl` [(R) enantiomer dihydrochloride, 2-(2-{4-[(2R)-2-methyl-3-(10H-phenothiazin-10-yl)propyl]-1-piperazinyl}ethoxy)ethanol dihydrochloride] has an IC50 [1] of 50.1 nM, a Stereoselectivity ratio ([1]; D3, IC50 of (S) enantiomer/IC50 of (R) enantiomer) of 63 and an IC50 [2] of 158 nM. The Stereoselectivity ratio ([2]; D4.4, IC50 of (S) enantiomer/IC50 of (R) enantiomer) was 158, the “Time to onset of emesis” value ([6]; 7.5 mg/kg p.o.) was 81 min and the “Proportion of animal vomiting” value ([6]; 7.5 mg/kg p.o.) was 5/8. The “Time to onset of emesis” value ([6]; 15 mg/kg p.o.) was 80 min, the “Proportion of animal vomiting” value ([6]; 15 mg/kg p.o.) was 8/8 and the “Time to onset of emesis” value ([6]; 30 mg/kg p.o.) was 81 min. The “Proportion of animal vomiting” value ([6]; 30 mg/kg p.o.) was 5/8, the “Time to onset of emesis” value ([6]; 60 mg/kg p.o.) was 134 min and the “suppression of vomiting, number of animals” value ([6]; 60 mg/kg p.o.) was 4 animals out of 8. The “Proportion of animal vomiting” value ([6]; 60 mg/kg p.o.) was 4/8*, the “antiemetic effect (in words)” value [6, 8] was “induced an antiemetic effect” and the “effect on time to onset of emesis (in words)” value (“effect on time to onset” below) [6, 8] was “a tendency to increase the time to onset of emesis”. The “antiemetic effect (in words)” value [6, 9] was “significantly reduce cisplatin-induced emesis”, the “effect on time to onset” value [6, 9] was “clear tendency to delay the latency to onset of the first vomiting episode” and the IC50 [3] was 2.51 nM. For the same compound, the Stereoselectivity ratio ([3]; D2, IC50 of (S) enantiomer/IC50 of (R) enantiomer) was 316, the IC50 [4] was 3.98 nM and the Stereoselectivity ratio ([4]; 5-HT2, IC50 of (S) enantiomer/IC50 of (R) enantiomer) was 16. For the same compound, the IC50 [5] was 0.2 nM and the Stereoselectivity ratio ([5]; H1, IC50 of (S) enantiomer/IC50 of (R) enantiomer) was 25.
For `C[C@@H](CN1CCN(CCOCCO)CC1)CN1c2ccccc2Sc2ccccc21.Cl.Cl` [(S) enantiomer dihydrochloride, 2-(2-{4-[(2S)-2-Methyl-3-(10H-phenothiazin-10-yl)propyl]-1-piperazinyl}ethoxy)ethanol dihydrochloride], the IC50 [1] was 3160 nM, the IC50 [2] was 25100 nM and the “Time to onset of emesis” value ([6]; 7.5 mg/kg p.o.) was 87 min. The “Proportion of animal vomiting” value ([6]; 7.5 mg/kg p.o.) was 8/8, the “Time to onset of emesis” value ([6]; 15 mg/kg p.o.) was 87 min and the “Proportion of animal vomiting” value ([6]; 15 mg/kg p.o.) was 8/8. The “Time to onset of emesis” value ([6]; 30 mg/kg p.o.) was 82 min, the “Proportion of animal vomiting” value ([6]; 30 mg/kg p.o.) was 7/8 and the “Time to onset of emesis” value ([6]; 60 mg/kg p.o.) was 68* minutes. The “Proportion of animal vomiting” value ([6]; 60 mg/kg p.o.) was 7/8, the “pro-emetic properties (in words)” value ([6]; cisplatin-treated ferrets) was “undesirable pro-emetic properties” and the “effect on time to onset” value ([6]; highest dose of 60 mg/kg p.o.) was “statistically significant decrease in the time of onset of emesis”. For the same compound, the “antiemetic effect (in words)” value ([6]; whatever the dose tested (7.5 to 60 mg/kg p.o.), dihydrochloride) was “no antiemetic effect”, the “antiemetic effect (in words)” value ([6]; whatever the dose tested (7.5 to 60 mg/kg p.o.), listed as (S) enantiomer of dixyrazine dihydrochloride, dihydrochloride) was “inactive in preventing cisplatin-induced emesis” and the IC50 [3] was 794 nM. For the same compound, the IC50 [4] was 63.1 nM and the IC50 [5] was 5.01 nM.
In the case of `CN1C2CCCC1CC(NC(=O)c1nn(C)c3ccccc13)C2` (stereo not shown) [Granisetron, reference compound], the “Time to onset of emesis” value ([6]; 0.3 mg/kg p.o.) was 160* minutes, the “antiemetic effect (in words)” value ([6]; 0.3 mg/kg p.o.) was “significant antiemetic effect” and the “Proportion of animal vomiting” value ([6]; 0.3 mg/kg p.o.) was 3/8*. For the same compound, the “suppression of vomiting, number of animals” value ([6]; 0.3 mg/kg p.o., 1 hour before cisplatin i.v.) was 5 animals out of 8 and the “effect on time to onset” value ([6]; 0.3 mg/kg p.o., the 3 animals that still vomited) was “increase in the time to onset of emesis”.
For `Cc1nccn1CC1CCc2c(c3ccccc3n2C)C1=O` (stereo not shown) [ondansetron], the “effect on nausea (in words)” value [7] is listed as “no clear-cut effect against the nausea” and the “effect on vomiting (in words)” value [7] is listed as “clearly effective in preventing vomiting”.
